In one data set the target is T1, COX-2 (Homo sapiens, UniProt P35354).
T1 sequence (P35354 18-604): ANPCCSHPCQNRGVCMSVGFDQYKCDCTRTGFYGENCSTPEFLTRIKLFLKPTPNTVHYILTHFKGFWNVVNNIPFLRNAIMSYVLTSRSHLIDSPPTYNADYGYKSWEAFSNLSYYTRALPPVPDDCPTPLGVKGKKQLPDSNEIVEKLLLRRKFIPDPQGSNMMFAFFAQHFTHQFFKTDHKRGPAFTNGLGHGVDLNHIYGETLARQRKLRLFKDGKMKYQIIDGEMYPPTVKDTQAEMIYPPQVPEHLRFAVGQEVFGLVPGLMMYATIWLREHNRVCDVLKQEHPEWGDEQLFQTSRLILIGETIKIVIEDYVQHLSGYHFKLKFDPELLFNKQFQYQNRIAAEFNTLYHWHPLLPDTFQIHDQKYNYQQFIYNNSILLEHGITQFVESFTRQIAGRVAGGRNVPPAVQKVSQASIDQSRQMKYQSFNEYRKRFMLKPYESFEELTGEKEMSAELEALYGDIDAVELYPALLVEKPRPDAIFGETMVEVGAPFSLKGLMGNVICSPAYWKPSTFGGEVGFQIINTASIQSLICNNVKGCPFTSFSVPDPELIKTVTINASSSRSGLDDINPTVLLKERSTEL
Briefly: Colorimetric cyclooxygenase inhibition assay (COX-2). Type of data set: biochemical. The settings on record: for IC50: incubation for 2 min with the tested compounds at a concentration of 100 µM, mean (SD); for COX Selectivity Ratio IC50(COX-2)/IC50(COX-1): ratio COX-2 over COX-1. How it is done:
COX peroxidase activity was evaluated by colorimetric evaluation of the occurrence of the oxidized form of N, N, N′, N′-tetramethyl-p-phenylenediamine (TMPD). The reduction of PGG2 (prostaglandin G2) to PGH2 is due to the oxidation of TMPD. […] The tested compounds wells included 110 μL Assay Buffer, 10 μL Hemin, and 40 μL solution of tested compounds, which was dissolved in DMSO in a final concentration of 10 mM. These samples were performed in three replicates for every compound. […] Subsequently, 20 μL substrate, i.e., arachidonic acid, was added. The entire plate was shaken for 5 min. The result is a change in color measured at 590 nm with a Varioskan LUX microplate reader (Thermo Scientific, Waltham, MA, USA).

The test system of the next data set is NHDF cells. Briefly: SRB viability assay on NHDF cells. Type of data set: cell-based. To be noted: Homo sapiens, 48 h incubation with NHDF cells, tested 10-100 µM, mean (SD). How it is done:
The NHDF (CC-2511) was purchased from Lonza, Basel. This line was derived from human dermal fibroblasts grown in 5% CO2 with 95% humidity at 37 °C. Cells were cultured with 10% FBS and 2 mM L-glutamine, 1.25 μg/mL Amphotericin B, and 100 μg/mL Gentamicin. Twice a week, the morphology and confluence were evaluated under microscopy. The confluence was above 70%, and the NHDF cells were subcultured with TrypLE solution.
The new 2-[2-hydroxy-3-(4-substituted-1-piperazinyl)propyl] derivatives were dissolved in DMSO to a concentration of 10 mM and stored at −20 °C. The samples were prepared in four different concentrations of compounds (10 µM, 25 µM, 50 µM, and 100 µM), so the concentration of DMSO for cells was […].
Viability evaluation was performed using the Sulforhodamine B (SRB) dye. The SRB assay was carried out 24 h after seeding. The culture plates were fixed with a cold TCA solution with a final concentration of 10% w/v for 1 h at 4–8 °C. This plate was T0 control. T0 is cell before treatment tested compounds. The supernatant was removed from the culture. The compounds were added and incubated for 48 h at 5% CO2, 95% humidity, and 37 °C. The culture was fixed with a cold TCA solution. The same condition was performed on the T0 plate. […] The absorbance was measured at 540 nm with a Varioskan LUX microplate reader (Thermo Scientific, Waltham, MA, USA).
For orientation: In SRB staining, fixed cells bind dye roughly in proportion to their protein.

The target in another data set is 15-LOX (Glycine max, UniProt P08170). Kind of data set: Lipoxygenase inhibitor screening assay. Type of data set: biochemical. To be noted: 15-LO, arachidonic acid substrate; mean (SD). How it is done:
The assay detects and measures the hydroperoxides produced in the lipoxygenation reduction using a purified lipoxygenase (LO). Blank wells were prepared that contained 100 μL Assay buffer. The positive control included 10 μL 1x assay buffer and 90 μL 15-LO, but 100% of the Initial activity samples contained 90 μL 15-LO and 10 μL methanol. Samples with test compounds were prepared in triplicate, containing 90 µL of 15-LO and 10 µL of test compound at the assayed concentration of 10 mM. All samples prepared in this way were incubated for 5 min at room temperature. Subsequently, the substrate, i.e., arachidonic acid, was added. The entire test plate was shaken for 10 min. 100 µL of chromogen was added to the samples. The entire plate was shaken for 5 min. The absorbance was read at 490 nm in a VariuScan microplate reader.

Details of data set [1]: method as in PMID 10683864. To be noted: "writhing syndrome" test; cited from earlier work. For orientation: An intraperitoneal irritant provokes the stretching counted in writhing tests.
On the set-up of data set [2]: method as in PMID 10683864. The settings on record: "hot plate" test; cited from earlier work.

Results on 16 molecules are retold here after paper PMC10303166, “Design, Synthesis, Biological Evaluation, and Molecular Docking Study of 4,6-Dimethyl-5-aryl/alkyl-2-[2-hydroxy-3-(4-substituted-1-piperazinyl)propyl]pyrrolo[3,4-c]pyrrole-1,3(2H,5H)-diones as Anti-Inflammatory Agents with Dual Inhibition of COX and LOX” (Pharmaceuticals, 2023).

Like-named read-outs stand apart in the source and are kept apart here.

What is called IC50 is the point on the concentration scale where inhibition reaches its midpoint. The low end stands for inhibition by little substance, the high end for a need for much substance. The term melting point denotes the temperature of the solid-liquid transition.

Chain of 15-LOX (P08170 whole entry): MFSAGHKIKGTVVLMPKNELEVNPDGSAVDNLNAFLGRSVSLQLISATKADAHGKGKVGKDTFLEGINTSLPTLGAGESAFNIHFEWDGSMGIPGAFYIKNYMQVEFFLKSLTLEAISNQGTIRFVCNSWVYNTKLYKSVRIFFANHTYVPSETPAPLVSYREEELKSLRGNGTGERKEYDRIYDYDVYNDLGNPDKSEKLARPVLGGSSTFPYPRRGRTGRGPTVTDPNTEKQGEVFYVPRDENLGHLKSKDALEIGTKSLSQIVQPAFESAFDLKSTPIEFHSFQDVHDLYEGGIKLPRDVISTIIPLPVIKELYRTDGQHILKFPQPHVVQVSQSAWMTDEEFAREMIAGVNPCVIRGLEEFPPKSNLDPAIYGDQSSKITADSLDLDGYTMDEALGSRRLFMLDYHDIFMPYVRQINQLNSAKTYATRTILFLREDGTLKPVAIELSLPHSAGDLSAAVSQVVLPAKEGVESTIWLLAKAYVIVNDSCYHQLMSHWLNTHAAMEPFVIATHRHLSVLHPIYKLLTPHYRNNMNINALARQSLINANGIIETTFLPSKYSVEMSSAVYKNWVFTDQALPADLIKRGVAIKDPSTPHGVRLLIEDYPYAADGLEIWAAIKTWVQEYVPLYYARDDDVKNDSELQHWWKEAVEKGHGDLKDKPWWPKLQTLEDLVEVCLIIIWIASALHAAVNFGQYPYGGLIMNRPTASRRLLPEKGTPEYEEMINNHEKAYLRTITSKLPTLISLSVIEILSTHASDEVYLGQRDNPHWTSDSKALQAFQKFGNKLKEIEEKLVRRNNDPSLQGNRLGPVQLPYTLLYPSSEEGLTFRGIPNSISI

In the case of `Cc1c2c(c(C)n1-c1ccccc1)C(=O)N(CC(O)CN1CCN(c3cccc(C(F)(F)F)c3)CC1)C2=O` (stereo not drawn) [3h, 4,6-dimethyl-5-phenyl-2-[2-hydroxy-3-[4-(m-trifluoromethylphenyl)piperazin-1-yl]propyl]pyrrolo[3,4-c]pyrrole-1,3(2H,5H)-dione], the melting point was 135 to 138 °C. Moreover, at COX-2, the IC50 is 59.34 ± 0.04 µM and the “COX Selectivity Ratio IC50(COX-2)/IC50(COX-1)” value is on record as 0.75.

`CCCCn1c(C)c2c(c1C)C(=O)N(CC(O)CN1CCN(c3ncccn3)CC1)C2=O` (stereo not drawn) [3k, 4,6-dimethyl-5-butyl-2-[2-hydroxy-3-(4-pyrimidynyl-1-piperazinyl)propyl]pyrrolo[3,4-c]pyrrole-1,3(2H,5H)-dione]: the melting point fell in the range of 182 to 184 °C. Moreover, on COX-2, the IC50 was 60.83 ± 0.01 µM and the “COX Selectivity Ratio IC50(COX-2)/IC50(COX-1)” value stood at 0.73.

Take `Cc1c2c(c(C)n1-c1cccc(Cl)c1)C(=O)N(CC(O)CN1CCN(S(C)(=O)=O)CC1)C2=O` (stereo not drawn) [3n, 4,6-dimethyl-5-(3-chlorophenyl)-2-[2-hydroxy-3-(N-methylsulphonylpiperazin-1-yl)-propyl]pyrrolo[3,4-c]pyrrole-1,3(2H,5H)-dione]: the melting point was 119 to 122 °C. In addition, at COX-2, the IC50 is 60.25 ± 0.07 µM and the “COX Selectivity Ratio IC50(COX-2)/IC50(COX-1)” value is listed as 0.71.

In turn, `Cc1c2c(c(C)n1-c1ccccc1)C(=O)N(CC(O)CN1CCN(c3ccc(F)cc3)CC1)C2=O` (stereo not drawn) [3c, 4,6-dimethyl-5-phenyl-2-[2-hydroxy-3-[4-(p-fluorophenyl)piperazin-1-yl]propyl]pyrrolo[3,4-c]pyrrole-1,3(2H,5H)-dione] displayed a melting point of 182 to 184 °C. On COX-2, the IC50 came to 60.05 ± 0.03 µM and the “COX Selectivity Ratio IC50(COX-2)/IC50(COX-1)” value stood at 0.76.

Molecule `CCCCn1c(C)c2c(c1C)C(=O)N(CC(O)CN1CCN(S(C)(=O)=O)CC1)C2=O` (stereo not drawn) [3o, 4,6-dimethyl-5-butyl-2-[2-hydroxy-3-(N-methylsulphonylpiperazin-1-yl)-propyl]pyrrolo[3,4-c]pyrrole-1,3(2H,5H)-dione] showed a melting point of 139 to 141 °C. For the same molecule, 49.47 ± 0.05 µM corresponded to half-maximal inhibition with NHDF cells (IC50). Besides, at COX-2, the IC50 was 59.42 ± 0.06 µM and the “COX Selectivity Ratio IC50(COX-2)/IC50(COX-1)” value is 0.85.

For `CCCCn1c(C)c2c(c1C)C(=O)N(CC(O)CN1CCN(c3ccc(Br)cc3)CC1)C2=O` (stereo not drawn) [3b, 4,6-dimethyl-5-butyl-2-[2-hydroxy-3-[4-(p-bromophenyl)piperazin-1-yl]propyl]pyrrolo[3,4-c]pyrrole-1,3(2H,5H)-dione], the melting point lay within 180 to 182 °C. At COX-2, the IC50 came to 59.77 ± 0.05 µM and the “COX Selectivity Ratio IC50(COX-2)/IC50(COX-1)” value is recorded as 0.76.

As to `CCCCn1c(C)c2c(c1C)C(=O)N(CC(O)CN1CCN(c3ccccc3C#N)CC1)C2=O` (stereo not drawn) [3f, 4,6-dimethyl-5-butyl-2-[2-hydroxy-3-[4-(o-cyjanophenyl)piperazin-1-yl]propyl]pyrrolo[3,4-c]pyrrole-1,3(2H,5H)-dione], the melting point lay within 154 to 156 °C. In addition, half-maximal inhibition against COX-2 (IC50) required 60.36 ± 0.06 µM. For the same molecule, the “Lipoxygenase Inhibition Assay IC50 LOX” value at 15-LOX was “higher activity against LOX than Zileuton”.

Turning to `Cc1c2c(c(C)n1-c1ccccc1)C(=O)N(CC(O)CN1CCN(c3ncccn3)CC1)C2=O` (stereo not drawn) [3i, 4,6-dimethyl-5-phenyl-2-[2-hydroxy-3-(4-pyrimidynylpiperazin-1-yl)propyl]pyrrolo[3,4-c]pyrrole-1,3(2H,5H)-dione], at COX-2, the IC50 was found to be 57.93 ± 0.02 µM and the “COX Selectivity Ratio IC50(COX-2)/IC50(COX-1)” value was determined as 0.71.

`CCCCn1c(C)c2c(c1C)C(=O)N(CC(O)CN1CCN(c3ccc(F)cc3F)CC1)C2=O` (stereo not drawn) [3e, 4,6-dimethyl-5-butyl-2-[2-hydroxy-3-[4-(2,4-difluorophenyl)piperazin-1-yl]propyl]pyrrolo[3,4-c]pyrrole-1,3(2H,5H)-dione] came in with a melting point of 139 to 141 °C. For the same molecule, on COX-2, half-maximal inhibition (IC50) was put at 56.43 ± 0.03 µM and the “COX Selectivity Ratio IC50(COX-2)/IC50(COX-1)” value was 0.64. Also, the “Lipoxygenase Inhibition Assay IC50 LOX” value on 15-LOX is on record as “higher activity against LOX than Zileuton”.

In turn, `CCOc1ccccc1N1CCN(CC(O)CN2C(=O)c3c(c(C)n(-c4cccc(Cl)c4)c3C)C2=O)CC1` (stereo not drawn) [3g, 4,6-dimethyl-5-(3-chlorophenyl)-2-[2-hydroxy-3-[4-(o-ethoxyphenyl)piperazin-1-yl]propyl]pyrrolo[3,4-c]pyrrole-1,3(2H,5H)-dione] showed a melting point of 129 to 131 °C. In addition, on COX-2, the half-inhibitory concentration (IC50) was found to be 60.55 ± 0.09 µM and the “COX Selectivity Ratio IC50(COX-2)/IC50(COX-1)” value was 0.70.

For the molecule `CCCCn1c(C)c2c(c1C)C(=O)N(CC(O)CN1CCN(c3ccccc3)CC1)C2=O` (stereo not drawn) [Compound I], the “Analgesic activity: acted up to the dose (fraction of LD50)” value in data set [1] was 1/80; in data set [2], 1/20.

`Cc1c2c(c(C)n1-c1ccccc1)C(=O)N(CC(O)CN1CCN(S(C)(=O)=O)CC1)C2=O` (stereo not drawn) [3m, 4,6-dimethyl-5-phenyl-2-[2-hydroxy-3-(N-methylsulphonylpiperazin-1-yl)-propyl]pyrrolo[3,4-c]pyrrole-1,3(2H,5H)-dione] registered a melting point of 136 to 138 °C. In addition, on COX-2, 61 ± 0.04 µM corresponded to half-maximal inhibition (IC50) and the “COX Selectivity Ratio IC50(COX-2)/IC50(COX-1)” value is listed as 0.80.

With `Cc1c2c(c(C)n1-c1ccccc1)C(=O)N(CC(O)CN1CCN(c3ccccc3)CC1)C2=O` (stereo not drawn) [II], the “Analgesic activity: acted up to the dose (fraction of LD50)” value is recorded as 1/40 in data set [1] and 1/20 in data set [2].

In the case of `CCCCn1c(C)c2c(c1C)C(=O)N(CC(O)CN1CCN(c3ccc(C)cc3)CC1)C2=O` (stereo not drawn) [3a, 4,6-dimethyl-5-butyl-2-[2-hydroxy-3-[4-(p-methylphenyl)piperazin-1-yl]propyl]pyrrolo[3,4-c]pyrrole-1,3(2H,5H)-dione], the melting point fell in the range of 116 to 118 °C. Also, at COX-2, the IC50 amounted to 60.16 ± 0.08 µM and the “COX Selectivity Ratio IC50(COX-2)/IC50(COX-1)” value is recorded as 0.73.

Regarding `Cc1c2c(c(C)n1-c1ccccc1)C(=O)N(CC(O)CN1CCN(c3ccc(F)cc3F)CC1)C2=O` (stereo not drawn) [3d, 4,6-dimethyl-5-phenyl-2-[2-hydroxy-3-[4-(2,4-difluorophenyl)-1-piperazinyl]propyl]pyrrolo[3,4-c]pyrrole-1,3(2H,5H)-dione], the melting point lay within 143 to 145 °C. 86.55 ± 0.05 µM corresponded to half-maximal inhibition in the data set on NHDF cells (IC50). On COX-2, the IC50 turned out to be 59.7 ± 0.03 µM and the “COX Selectivity Ratio IC50(COX-2)/IC50(COX-1)” value is given as 0.73.

`Cc1c2c(c(C)n1-c1cccc(Cl)c1)C(=O)N(CC(O)CN1CCN(c3ncccn3)CC1)C2=O` (stereo not drawn) [3j, 4,6-dimethyl-5-(3-chlorophenyl)-2-[2-hydroxy-3-(4-pyrimidynylpiperazin-1-yl)propyl]pyrrolo[3,4-c]pyrrole-1,3(2H,5H)-dione] yielded a melting point of 179 to 181 °C. Also, on COX-2, the IC50 was 60.28 ± 0.02 µM and the “COX Selectivity Ratio IC50(COX-2)/IC50(COX-1)” value is reported as 0.79.
